Test results: US20140323488A1, “DISUBSTITUTED TRIAZINE DIMERS FOR TREATMENT AND/OR PREVENTION OF INFECTIOUS DISEASES” (Universiteit Antwerpen, priority 2011, published 2014)

Legend:
Type in all cases: cell-based
P. falciparum = experiment: In vitro anti-Plasmodium falciparum activity; details: read-out: Pf-K1 IC50
Procedure: In Vitro Anti-Plasmodium falciparum Activity
All cultures and assays were conducted under a humidified atmosphere (37° C., 4% CO2, 3% O2 and 93% N2) with the assay being an adaptation of the procedure described by Desjardins et al. (12). Assays were performed in 96-well microtiter plates, each well containing 10 μL of the watery extract dilutions together with 190 μL of the malaria parasite inoculum (1% parasitemia, 2% hematocrit). After incubation for 72 h at 37° C., the plates were frozen and stored at −20° C. Upon thawing, 20 μL of each well was transferred into another plate together with 100 μL Malstat® reagent and 20 μL of a 1/1 mixture of PES (phenazine ethosulphate, 2 mg/mL) and NBT (Nitro Blue Tetrazolium Grade III, 0.1 mg/ml). […] The results were expressed as % reduction in parasitemia compared to control wells. The extracts were tested using five 4-fold dilutions starting with 64 μg/mL. Chloroquine was included as reference drug.

[1] = system: Trypanosoma b. brucei Squib 427; experiment: In vitro anti-Trypanosoma brucei brucei activity; details: read-out: T. bruc. IC50
Procedure: In Vitro Anti-Trypanosoma brucei brucei Activity:
After incubation in a humidified atmosphere (37° C., 5% CO2) for 72 h, resazurin was added for another 24 h and parasite growth was assessed fluorimetrically (λex 550 nm, λem 590 nm). […] Suramin was included as reference drug.

HIV-1 BaL = experiment: TZM-bl assay, anti-HIV-1 activity; details: read-out: EC50 (50% effective concentration), anti-HIV-1 activity; TZM-bl cells
Procedure: The JC53-BL cell line, also known as the TZM-bl cell line (NIH AIDS Research and Reference Reagent Program, Germantown, USA), was used for the evaluation of anti-HIV activity. […] The resulting cell suspension was washed with an equivalent amount of TZM-bl medium and subsequently seeded in a T75 culture flask (Greiner Bio-One, Germany) at 10^6 cells in 20 mL medium.
The antiviral activity of the newly designed compounds was measured by pre-incubating ten thousand TZM-bl cells (at 10^5 cells/mL in culture medium supplemented with 30 μg/mL DEAE dextran) in a 96-well plate for 30 minutes at 37° C., 5% CO2 in the presence or absence of serial dilutions of the respective compound. Subsequently, 200 TCID50 of HIV-1 BaL was added to each well and cultures were incubated for 48 hours before quantifying luciferase activity, using a TriStar LB941 luminometer (Berthold Technologies GmbH & Co. KG, Bad Wildbad, Germany). Each condition was evaluated in triplicate wells and in at least two independent experiments. The antiviral activity of the compound was expressed as the percentage of viral inhibition compared to the untreated controls and subsequently plotted against the compound concentration.

[2] = molecular target: Trypanosoma cruzi, Tulahuen CL2, β galactosidase strain; experiment: In vitro anti-Trypanosoma cruzi activity; details: read-out: T. cruz. IC50
Procedure: In Vitro Anti-Trypanosoma cruzi Activity
All cultures and assays were conducted under a humidified atmosphere (37° C., 5% CO2). […] The change in color was measured spectrophotometrically at 540 nm after 4 h at 37° C. […] Benznidazole was included as reference drug.

[3] = system: Human lung fibroblast MRC-5SV2 cells; experiment: Cytotoxicity assay on MRC-5SV2 cells (resazurin)
Procedure: Assays were performed in 96-well microtiter plates, each well containing 1×10^4 cells. […] After incubation for 72 h in a humidified atmosphere (37° C., 5% CO2) and addition of resazurin, the cell viability was assessed fluorimetrically (λex 550 nm, λem 590 nm). The results were expressed as % reduction in cell growth/viability compared to untreated control wells and IC50 values were determined. Tamoxifen was included as reference drug.

TZM-bl cells = experiment: WST-1 cytotoxicity assay; details: read-out: CC50 (50% cytotoxic concentration)
Source text: The Water Soluble Tetrazolium-1 (WST-1) Cell Proliferation Assay is a colorimetric assay for the measurement of cell proliferation and viability. The assay is based on the cleavage of the tetrazolium salt WST-1 (4-[3-(4-iodophenyl)-2-(4-nitrophenyl)-2H-5-tetrazolio]-1,3-benzene disulfonate) to a formazan dye by a complex cellular mechanism. This bioreduction is largely dependent on the glycolytic production of NAD(P)H in viable cells. Therefore, the amount of formazan dye formed correlates directly to the number of viable cells in the culture, and can be quantified by measuring the absorbance at 450 nm in a multiwell plate reader. The greater the number of viable cells, the greater the amount of formazan dye produced following the addition of WST-1. Cytotoxicity of each compound was evaluated using this WST-1 viability assay, according to the manufacturer's instructions (Roche, Vilvoorde, Belgium).
Briefly, ten thousand TZM-bl cells were seeded in a 96-well plate and cultured for 2 days in the presence of a serial dilution of compound. After this 48 h exposure, Cell Proliferation Reagent, WST-1, was added and absorbance at 450 nm was quantified after 90 min using a microplate reader (BioRad, Tokio, Japan). Each compound was tested in three replicate wells and in at least two independent experiments.

[4] = system: T. rhodesiense (strain STIB-900); experiment: In vitro anti-Trypanosoma brucei rhodesiense activity; details: read-out: T. rhod. IC50
Procedure: In Vitro Anti-Trypanosoma brucei rhodesiense Activity
T. rhodesiense (strain STIB-900) was maintained in HMI-9-medium, supplemented with 10% heat-inactivated FBS. Assays were performed in 96-well microtiter plates, each well containing 10 μL of the extract dilution together with 190 μL of the parasite suspension (2×10^4 parasites/mL). After incubation in a humidified atmosphere (37° C., 5% CO2) for 72 h, resazurin was added for another 6 h and parasite growth was assessed fluorimetrically (λex 550 nm, λem 590 nm). […] Suramin was included as reference drug.

[5] = system: Leishmania infantum MHOM/MA (BE)/67; experiment: In vitro anti-Leishmania infantum activity; details: read-out: L. inf. IC50
Procedure: In Vitro Anti-Leishmania infantum Activity
Leishmania infantum MHOM/MA (BE)/67 was maintained in the golden hamster and spleen amastigotes were collected for preparing infection inocula. Primary peritoneal mouse macrophages were used as host cells and collected 48 h after peritoneal stimulation with a 2% potato starch suspension. […] After incubation for 120 h in a humidified atmosphere (37° C., 5% CO2), total parasite burdens were microscopically assessed after Giemsa staining. The results were expressed as % reduction in parasite burden compared to untreated control wells and IC50 values were calculated. The extracts were tested using five fourfold dilutions starting with 64 μg/mL.

## Cc1cc(C)c(Nc2nc(Nc3ccc(C#N)cc3)nc(Nc3ccc(Nc4nc(Nc5ccc(C#N)cc5)nc(Nc5c(C)cc(C)cc5C)n4)cc3)n2)c(C)c1 [T12, 4,4′-((6,6′-(1,4-phenylenebis(azanediyl))bis(4-(mesitylamino)-1,3,5-triazine-6,2-diyl))bis(azanediyl))dibenzonitrile]
P. falciparum
  IC50: > 64000 nM
[1]
  IC50: 530 nM
HIV-1 BaL
  EC50: 167 nM
[2]
  IC50: > 64000 nM
[3]
  cytotoxicity in comparison with monomer I5: no cytotoxicity
[3]; human cell line MRC5
  IC50: > 64000 nM
TZM-bl cells
  CC50: > 100000 nM
[4]
  IC50: 20 nM
[5]
  IC50: > 64000 nM
